Measurements as given in patent publication US6350812B1, “Hydrogels containing triblock copolymers, and preparation and use thereof” (Centre National de la Recherche Scientifique (CNRS), priority 1995, dated 2002).

Experiments:
[1] = Incorporation and retention of a hydrophobic substance in the hydrogel on addition of water and washing with water; type: physicochemical; conditions: acetone solution, water added
Procedure: 1 g of copolymer of Example 1.3 and 5 mg of commercial colorant Yellow OB are dissolved in 2 cm^3 of acetone.
This is a very hydrophobic, water-insoluble colorant. Distilled water (4 cm^3) is gradually added. A gel is obtained which occupies virtually all the volume of the starting acetone solution.
Hydrogels in which progesterone is incorporated were prepared in an analogous way. […] When administered by subcutaneous injection, the gel constitutes a bioresorbable soft implant which gradually releases the progesterone.

[2] = as described for the commercial colorant; cited from earlier work

What does the source list for `Cc1ccccc1N=Nc1c(N)ccc2ccccc12` [Yellow OB]?
crystallisation / precipitation of the hydrophobic substance on addition of water or washing [1]: the colorant crystallizes during the addition of water; solubility of the colorant in water [2]: water-insoluble
